# Test results as given in article PMC7738856, “Inter and intra-tumor somatostatin receptor 2 heterogeneity influences peptide receptor radionuclide therapy response” (Theranostics, 2021).
# Experiments:
# NCl-H69 xenografted mice = system: NCl-H69 xenografted mice; parameters: species or system BALB-c/nude mice; conditions: mouse, in vivo, iv
# Procedure: BALB-c/nude mice were engrafted subcutaneously with 5 x 10^6 NCI-H69 cells in 200 µl Hanks Balanced Salt Solution (HBSS) (Gibco, 14065056) containing 33,3% Matrigel (Corning, 354248). […] Mice were sacrificed by cervical dislocation and analyzed at 1 h, 1, 2, 3, 4, 5, 7, 9, 11 and 14 days post injection (p.i.). Organs were put in a gamma-counter for measurement of radioactive uptake and then fixed in formalin for 1 day at RT and stored in 70% ethanol until they were embedded in paraffin. Uninjected animals were used as control (n = 4).
# The biodistribution data were analyzed to determine the kinetics of the activity in organs and tumors. The measured activity data as a function of time were fitted with single or double exponential curves using the least-square regression method with Graphpad Prism version 5 (graphpad.com). Decisions on to use a single or a double exponential curve was based on the (corrected) Akaike's information criterion. The time-activity curves were integrated over time to determine the time-integrated activity coefficients after folding in the lutetium-177 decay function. Absorbed doses in all organs and in the tumor were calculated by using the MIRD equation with the lutetium-177 S-values for a 22 g mouse Moby phantom, kindly provided by Dr Erik Larsson.
# NCI-H69 tumors [1] = test: TUNEL assay on tumor sections; type: in vivo, BALB-c/nude mice; conditions: 30 MBq, n = 4; for TUNEL positive areas (average): 25 fields of view per tumor
# Procedure: BALB-c/nude mice were engrafted subcutaneously with 5 x 10^6 NCI-H69 cells in 200 µl Hanks Balanced Salt Solution (HBSS) (Gibco, 14065056) containing 33,3% Matrigel (Corning, 354248). […] Organs were put in a gamma-counter for measurement of radioactive uptake and then fixed in formalin for 1 day at RT and stored in 70% ethanol until they were embedded in paraffin. Uninjected animals were used as control (n = 4). Tissue sections of 4 µm were deparaffinized and rehydrated. TUNEL assay was performed using the In Situ Cell Death Detection Kit, Fluorescein (Roche, 11684795910) according to manufacturer's instructions. 53BP1 and γH2AX focus formation was imaged with a Leica SP5 confocal microscope (Leica) using Z-stack acquisition. For tile-scan analyses a LSM700 confocal microscope (Zeiss) was used. Tiles were stitched, thresholded and quantified using ImageJ.
# NCI-H69 tumors [2] = test: Tumor growth and survival, NCI-H69 xenografts; type: in vivo, BALB-c/nude mice; conditions: n = 8
# Procedure: (§1) Animal experiments were approved by the Animal Welfare Committee of the Erasmus MC and were conducted in accordance with European guidelines. Animal experiments included a time series for analyses of radiobiological parameters in NCI-H69 xenografts and survival cohorts with NCI-H69 or CA20948 xenografts.
# (§2) BALB-c/nude mice were engrafted subcutaneously with 5 x 10^6 NCI-H69 cells in 200 µl HBSS containing 33,3% Matrigel or with 5 x 10^6 CA20948 cells in 200 µl HBSS. Mice with NCI-H69 tumors (n = 8) were injected when tumor volumes reached 697 ± 256 mm^3 and mice with CA20948 tumors (n = 9) when tumor reached 318 ± 216 mm^3. Both groups were compared to vehicle injected counterparts (n = 8 and n = 6, respectively). Tumor volumes were measured three times per week p.i. Mice were sacrificed when tumor volumes reached the humane endpoint of 2000 mm^3. Tumors were fixed in formalin for 1 day at RT and stored in 70% ethanol until they were embedded in paraffin.
# CA20948 tumors = test: Tumor growth and survival, CA20948 xenografts; type: in vivo, BALB-c/nude mice; conditions: treated CA20948 bearing mice, 30 MBq, n = 9
# Procedure: as §1, §2
# NCI-H69 tumors [3] = test: 53BP1 and γH2AX foci (immunofluorescence) in tumor sections; type: in vivo, BALB-c/nude mice; conditions: 2 days p.i.
# Procedure: BALB-c/nude mice were engrafted subcutaneously with 5 x 10^6 NCI-H69 cells in 200 µl Hanks Balanced Salt Solution (HBSS) (Gibco, 14065056) containing 33,3% Matrigel (Corning, 354248). […] Organs were put in a gamma-counter for measurement of radioactive uptake and then fixed in formalin for 1 day at RT and stored in 70% ethanol until they were embedded in paraffin. Uninjected animals were used as control (n = 4). […] Secondary antibodies used are donkey-anti-rabbit IgG Alexa Fluor 594 (Thermo Fisher, A-11078; 1:500) and donkey-anti-mouse IgG Alexa Fluor 488 (Thermo Fisher; A-11005; 1:500). For immunohistochemical stainings (IHC) Ki-67 (Abcam, ab15580; 1:200) was used. Here, the secondary antibody used is Peroxidase donkey-anti-rabbit IgG (Jackson Immunoresearch, 711-035-152; 1:2000). Cells were IF stained as previously described. Briefly, tissue sections were deparaffinized as described above. Then antigen retrieval was performed by boiling slides for 20 minutes in pH 6 (for cytoplasmic antigens) or pH 9 (for nuclear antigens) antigen retrieval buffer (DAKO) and cooling down to RT. Tissues were permeabilized with PBS+0.5% Triton (PBS(T)) at RT and blocked with 3% BSA in PBS(T) at RT. Sections were incubated with primary antibodies overnight at 4 °C in block buffer and with secondary antibodies for 60 minutes at RT. Mounting was done using Vectashield containing DAPI (Vector labs, H-1200). 53BP1 and γH2AX focus formation was imaged with a Leica SP5 confocal microscope (Leica) using Z-stack acquisition. For tile-scan analyses a LSM700 confocal microscope (Zeiss) was used. Tiles were stitched, thresholded and quantified using ImageJ. ImageJ was utilized to apply the same local threshold (default for DAPI, MaxEntropy for SST2) to all images in order to segment nuclei or quantify DAPI signal and quantify IF signal. Foci were quantified using the Find Maxima function.
# NCl-H69 tumors = test: Ki-67 immunohistochemistry of tumor sections; type: in vivo, BALB-c/nude mice
# Procedure: BALB-c/nude mice were engrafted subcutaneously with 5 x 10^6 NCI-H69 cells in 200 μl Hanks Balanced Salt Solution (HBSS) (Gibco, 14065056) containing 33,3% Matrigel (Corning, 354248). […] Organs were put in a gamma-counter for measurement of radioactive uptake and then fixed in formalin for 1 day at RT and stored in 70% ethanol until they were embedded in paraffin. Uninjected animals were used as control (n = 4). […] Secondary antibodies used are donkey-anti-rabbit IgG Alexa Fluor 594 (Thermo Fisher, A-11078; 1:500) and donkey-anti-mouse IgG Alexa Fluor 488 (Thermo Fisher; A-11005; 1:500). For immunohistochemical stainings (IHC) Ki-67 (Abcam, ab15580; 1:200) was used. Here, the secondary antibody used is Peroxidase donkey-anti-rabbit IgG (Jackson Immunoresearch, 711-035-152; 1:2000). Tissue sections of 4 μm were deparaffinized and rehydrated. Samples were then incubated in 3% H2O2 (Honeywell, 95299) in methanol (Honeywell, 32213-2.5l) for 20 minutes at RT. Slides were washed with tap water and boiled in pH 6 Antigen Retrieval buffer for 20 minutes. Slides were incubated in blocking solution (PBS 5%BSA), following with the primary antibody in blocking solution overnight at 4 °C and with the secondary antibody in blocking solution for 90 minutes at RT. […] Quantification was performed in ImageJ by using particle analysis after.
# [4] = system: CA20948 and NCI-H69 cells; test: In vitro uptake of radioactivity (γ-counts) in cells; type: cell-based; conditions: 1 MBq/mL, 4 h incubation, n = 3 experiments
# Procedure: NCI-H69 cells (ATCC) were cultured in Rosewell Park Medium Institute […] medium (RPMI-1638) (Sigma-Aldrich) supplemented with penicillin (50 units/mL), streptomycin (50 µg/mL) (Pen/Strep) and 10% fetal calf serum (FCS). CA20948 [14] cells were cultured in Dulbecco's Modified Eagle's Medium (DMEM) (Gibco) supplemented with Pen/Strep and 10% FCS. Cells were cultured at 37 °C and 5% CO2.
# NCI-H69 cells were spun down on a glass slide using a cytospin centrifuge (Rotofix 32A, Hettich) for 6 minutes at 347 g at room temperature (RT). CA20948 cells were washed and fixed on coverslips. Fixation was done using 2% paraformaldehyde (PFA) for 20 minutes at RT and samples were stained according to protocol (see below).
# S4. [177Lu]Lu-DO T A -TATE uptake in SST2hi g h and SST2low NCI-H69 cells. (A) lutetium- 177 uptake measured by γ-counts in NCI-H69 and CA20948 cells after 4 hours of incubation (experiment n = 3).
# **p < 0.01 (B) Representative IF images of SST2 after [ 177Lu]Lu-DOT A- TATE treatment. Arrows indicate internalization and accumulation of SST 2.
# S5. Additional foci quantifications in SST2hi g h and SST2low cells. γH2AX foci quantification in SST2high and SST 2lo w NC I -H69 cells 2 days after [177Lu]Lu-DOT A -TATE treatment. Error bars indicate […]
# NCI-H69 cells = test: 53BP1 and γH2AX foci in cells after in vitro treatment; type: cell-based
# Procedure: NCI-H69 cells (ATCC) were cultured in Rosewell Park Medium Institute […] medium (RPMI-1638) (Sigma-Aldrich) supplemented with penicillin (50 units/mL), streptomycin (50 µg/mL) (Pen/Strep) and 10% fetal calf serum (FCS). CA20948 [14] cells were cultured in Dulbecco's Modified Eagle's Medium (DMEM) (Gibco) supplemented with Pen/Strep and 10% FCS. Cells were cultured at 37 °C and 5% CO2. […] NCI-H69 cells were spun down on a glass slide using a cytospin centrifuge (Rotofix 32A, Hettich) for 6 minutes at 347 g at room temperature (RT). CA20948 cells were washed and fixed on coverslips. Fixation was done using 2% paraformaldehyde (PFA) for 20 minutes at RT and samples were stained according to protocol (see below). Cells were IF stained as previously described. Briefly, tissue sections were deparaffinized as described above. Then antigen retrieval was performed by boiling slides for 20 minutes in pH 6 (for cytoplasmic antigens) or pH 9 (for nuclear antigens) antigen retrieval buffer (DAKO) and cooling down to RT. […] Tiles were stitched, thresholded and quantified using ImageJ. ImageJ was utilized to apply the same local threshold (default for DAPI, MaxEntropy for SST2) to all images in order to segment nuclei or quantify DAPI signal and quantify IF signal. Foci were quantified using the Find Maxima function.
compound,measurement,setting,value
"C[C@@H](O)[C@H](NC(=O)[C@@H]1CSSC[C@H](NC(=O)[C@@H](Cc2ccccc2)NC(=O)CN2CCN(CC(=O)O)CCN(CC(=O)O)CCN(CC(=O)O)CC2)C(=O)N[C@@H](Cc2ccc(O)cc2)C(=O)N[C@H](Cc2c[nH]c3ccccc23)C(=O)N[C@@H](CCCCN)C(=O)N[C@@H]([C@@H](C)O)C(=O)N1)C(=O)O [[^177Lu]Lu-DOTA-TATE, [^177Lu]Lu-DOTA-[Tyr^3]octreotate, metal not drawn]","absorbed dose, kidney",NCl-H69 xenografted mice,3.5 ± 0.12 Gy
same,"absorbed dose, other organs",NCl-H69 xenografted mice,0.22-1.48 Gy
same,"absorbed dose, tumor",NCl-H69 xenografted mice,10.08 ± 0.35 Gy
same,TUNEL positive areas (average),NCI-H69 tumors [1]; 4 days p.i.,50%
same,TUNEL positive areas (average),NCI-H69 tumors [1]; 5 days p.i.,47%
same,fraction of TUNEL positive cells (average),NCI-H69 tumors [1]; 14 days after treatment,26%
same,tumor volume as % of the starting volume,"NCI-H69 tumors [2]; 14 days p.i., then regrowth, 30 MBq single injection",71%
same,median survival,"NCI-H69 tumors [2]; treated NCI-H69 bearing mice, 30 MBq",34 days
same,median survival,CA20948 tumors,54 days
same,"γH2AX foci in SST2 high cells, treated versus non-treated SST2 high regions",NCI-H69 tumors [3]; n = 4,significant increase
same,γH2AX foci in SST2 high versus SST2 low cells in tumors from treated mice,NCI-H69 tumors [3]; n = 4,significantly higher number
same,"γH2AX foci in SST2 low cells, treated versus non-treated mice",NCI-H69 tumors [3]; n = 4,no significant increase
same,increase in the number of γH2AX foci,NCI-H69 tumors [3]; versus NT controls,5 fold
same,Ki-67 positive cells,"NCl-H69 tumors; 2 days after treatment, significantly increased",74.13%
same,Ki-67 positive (cycling) cells in non-apoptotic regions,"NCl-H69 tumors; all samples regardless of therapy, except 2 days after treatment",60.96 ± 5.32%
same,uptake of radioactivity in CA20948 compared to NCI-H69 cells,[4],3 fold
same,level of 53BP1 and γH2AX foci per cell versus non-treated cells,"NCI-H69 cells; 1 day post treatment, 1 MBq/mL for 4 h at 37 °C",significant increase
same,γH2AX foci in SST2 high versus SST2 low NCI-H69 cells in vitro,"NCI-H69 cells; 2 days after incubation, 1 MBq/mL for 4 h",significant higher number
